Activity calls are given as the source filed them. The rule behind the calls is not given here.
How the values were obtained:
[1] = molecular target: T1, Proteinase-activated receptor 1 (Homo sapiens, UniProt P25116); assay: Displacement of [3H]haTRAP from PAR1
T1 sequence (P25116 whole entry): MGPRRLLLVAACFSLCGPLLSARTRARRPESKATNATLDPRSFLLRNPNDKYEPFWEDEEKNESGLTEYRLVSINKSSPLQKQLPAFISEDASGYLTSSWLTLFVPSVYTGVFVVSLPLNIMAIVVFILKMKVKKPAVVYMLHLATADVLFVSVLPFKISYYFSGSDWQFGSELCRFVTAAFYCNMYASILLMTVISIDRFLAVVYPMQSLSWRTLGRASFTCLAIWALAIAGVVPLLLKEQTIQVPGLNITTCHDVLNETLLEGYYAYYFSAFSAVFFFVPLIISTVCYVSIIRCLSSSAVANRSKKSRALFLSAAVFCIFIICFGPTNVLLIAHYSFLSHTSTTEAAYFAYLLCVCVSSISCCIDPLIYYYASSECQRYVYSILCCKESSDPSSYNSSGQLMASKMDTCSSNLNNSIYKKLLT

Cynomolgus monkey [2] = assay: Inhibition of platelet aggregation in cynomolgus monkey at 3 mg/kg, po; assay type: functional, organism-based; set-up: dose 3 mg/kg; details: Macaca fascicularis
[3] = AUC (0 to 6 hrs) in rat; assay type: ADME, organism-based; set-up: time < 6 hr; concentration or dose not given beside the values; details: plasma
[4] = AUC in cynomolgus monkey at 3 mg/kg, po; assay type: ADME, organism-based, Macaca fascicularis; set-up: dose 3 mg/kg, route oral; details: plasma
Cynomolgus monkey [5] = assay: Inhibition of platelet aggregation in cynomolgus monkey after 24 hrs; assay type: functional, Macaca fascicularis
Cynomolgus monkey [6] = assay: Inhibition of platelet aggregation in cynomolgus monkey at 2 mg/kg, po after 24 hrs; assay type: functional, organism-based; set-up: dose 2 mg/kg; details: Macaca fascicularis
[7] = AUC (0 to 24 hrs) in cynomolgus monkey at 1 mg/kg, po; assay type: ADME, organism-based, Macaca fascicularis; set-up: time < 24 hr, dose 1 mg/kg, route oral; details: plasma
[8] = system: Proteinase-activated receptor 1 (Homo sapiens); assay: Dissociation half-life from PAR-1 receptor
Cynomolgus monkey [9] = assay: Inhibition of platelet aggregation in cynomolgus monkey at 3 mg/kg, po upto 5 hrs; assay type: functional, organism-based; set-up: dose 3 mg/kg; details: Macaca fascicularis

Row | Structure (SMILES) | IC50 [1] | also measured
1 | O=C1OC[C@H]2[C@@H]1Cc1c(ccc(F)c1F)[C@@H]2/C=C/c1ccc(-c2cccc(Cl)c2)cn1 | 15.5 nM | Activity (Cynomolgus monkey [2]): inactive; AUC(0-t) at 6 h [3]: 264 ng·h/mL
2 | O=C1OC[C@H]2[C@@H]1Cc1c(F)cccc1[C@@H]2/C=C/c1ccc(-c2cccc(C(F)(F)F)c2)cn1 (racemic) | 65 nM | 
3 | O=C1OC[C@H]2[C@@H]1Cc1ccccc1[C@@H]2/C=C/c1ccc(-c2cccc(C(F)(F)F)c2)cn1 | 10 nM | AUC [4]: < 300 ng·h/mL
4 | O=C1OC[C@H]2[C@@H]1Cc1cccc(F)c1[C@@H]2/C=C/c1ccc(-c2cccc(F)c2)cn1 (racemic) | 85.5 nM | 
5 | COc1ccc2nc(/C=C/[C@@H]3c4ccccc4C[C@H]4C(=O)OC[C@@H]34)ccc2c1 (racemic) | 12.5 nM | 
6 | O=C1OC[C@H]2[C@@H]1Cc1cc(F)ccc1[C@@H]2/C=C/c1ccc(-c2cccc(Cl)c2)cn1 | 13 nM | AUC(0-t) at 6 h [3]: 3700 ng·h/mL; Inhibition (Cynomolgus monkey [5]): 60%
7 | O=C1OC[C@H]2[C@@H]1Cc1ccc(F)cc1[C@@H]2/C=C/c1ccc(-c2cccc(Cl)c2)cn1 | 10 nM | AUC(0-t) at 6 h [3]: 6720 ng·h/mL
8 | O=C1OC[C@H]2[C@@H]1Cc1c(F)cccc1[C@@H]2/C=C/c1ccc(-c2cccc(F)c2)cn1 | 20.5 nM | AUC(0-t) at 6 h [3]: 4590 ng·h/mL
9 | COc1ccc2nc(/C=C/[C@@H]3c4ccccc4C[C@H]4C(=O)O[C@@H](C)[C@@H]34)ccc2c1 | 3140 nM | 
10 | O=C1OC[C@H]2[C@@H]1Cc1ccc(F)cc1[C@@H]2/C=C/c1ccc(-c2cccc(C(F)(F)F)c2)cn1 | 31.5 nM | 
11 | O=C1OC[C@H]2[C@@H]1Cc1cccc(F)c1[C@@H]2/C=C/c1ccc(-c2cccc(Cl)c2)cn1 (racemic) | 330 nM | 
12 | O=C1OC[C@H]2[C@@H]1Cc1cc(F)ccc1[C@@H]2/C=C/c1ccc(-c2cccc(F)c2)cn1 | 7.6 nM | AUC(0-t) at 6 h [3]: 3960 ng·h/mL; Activity (Cynomolgus monkey [6]): Active; AUC(0-t) at 24 h [7]: 6200 ng·h/mL; dissociation half-life [8]: 139 min
13 | O=C1OC[C@H]2[C@@H]1Cc1ccc(Cl)cc1[C@@H]2/C=C/c1ccc(-c2cccc(C(F)(F)F)c2)cn1 (racemic) | 138 nM | 
14 | COc1ccc2nc(/C=C/[C@H]3c4ccccc4C[C@@H]4C(=O)O[C@@H](C)[C@@H]43)ccc2c1 | 9170 nM | 
15 | O=C1OC[C@H]2[C@H](/C=C/c3ccccn3)c3ccccc3C[C@@H]12 | 12000 nM | 
16 | COc1ccc2nc(/C=C/[C@@H]3c4ccccc4C[C@H]4C(=O)OC(C)(C)[C@@H]34)ccc2c1 (racemic) | 225 nM | 
17 | O=C1OC[C@H]2[C@@H]1Cc1ccc(Cl)cc1[C@@H]2/C=C/c1ccc(-c2cccc(Cl)c2)cn1 (racemic) | 120 nM | 
18 | O=C1OC[C@H]2[C@@H]1Cc1c(F)cc(F)cc1[C@@H]2/C=C/c1ccc(-c2cccc(C(F)(F)F)c2)cn1 | 21.5 nM | 
19 | COc1ccc2nc(/C=C/[C@@H]3c4ccccc4C[C@H]4C(=O)O[C@H](C)[C@@H]34)ccc2c1 | 580 nM | 
20 | O=C1OC[C@H]2[C@@H]1Cc1ccc(Cl)cc1[C@@H]2/C=C/c1ccc(-c2cccc(F)c2)cn1 | 14.5 nM | 
21 | O=C1OC[C@H]2[C@@H]1Cc1c(F)cccc1[C@@H]2/C=C/c1ccc(-c2cccc(Cl)c2)cn1 | 29 nM | 
22 | O=C1OC[C@H]2[C@@H]1Cc1ccccc1[C@@H]2/C=C/c1ccc(-c2cccc(F)c2)cn1 | 7.5 nM | AUC [4]: < 300 ng·h/mL
23 | O=C1OC[C@H]2[C@@H]1Cc1c(Cl)cccc1[C@@H]2/C=C/c1ccc(-c2cccc(Cl)c2)cn1 (racemic) | 328 nM | 
24 | O=C1OC[C@H]2[C@@H]1Cc1ccccc1[C@@H]2/C=C/c1ccc(-c2cccc(Cl)c2)cn1 | 14.5 nM | AUC [4]: 6300 ng·h/mL; Activity (Cynomolgus monkey [9]): Active
25 | O=C1OC[C@H]2[C@@H]1Cc1c(F)cc(F)cc1[C@@H]2/C=C/c1ccc(-c2cccc(Cl)c2)cn1 (racemic) | 46.5 nM | 
26 | O=C1OC[C@H]2[C@@H]1Cc1c(ccc(F)c1F)[C@@H]2/C=C/c1ccc(-c2cccc(F)c2)cn1 | 7 nM | 
27 | O=C1OC[C@H]2[C@@H]1Cc1c(Cl)cccc1[C@@H]2/C=C/c1ccc(-c2cccc(C(F)(F)F)c2)cn1 (racemic) | 225 nM | 
28 | COc1ccc2nc(/C=C/[C@H]3c4ccccc4C[C@@H]4C(=O)O[C@H](C)[C@@H]43)ccc2c1 | 90 nM | 
29 | O=C1OC[C@H]2[C@@H]1Cc1c(Cl)cccc1[C@@H]2/C=C/c1ccc(-c2cccc(F)c2)cn1 (racemic) | 63.5 nM | 
30 | O=C1OC[C@H]2[C@@H]1Cc1ccc(F)cc1[C@@H]2/C=C/c1ccc(-c2cccc(F)c2)cn1 | 10 nM | AUC(0-t) at 6 h [3]: 5050 ng·h/mL

Source: ChEMBL document CHEMBL1148878, “Himbacine derived thrombin receptor antagonists: discovery of a new tricyclic core” (Bioorg Med Chem Lett, 2007)
